Test results taken from ChEMBL document CHEMBL1201862, “PubChem BioAssay data set” (2004).
Active and inactive are the calls of the source.

Legend:
Beta-lactamase [1] = molecular target: Beta-lactamase (Pseudomonas aeruginosa, UniProt Q79MP6);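 note: biochemical dose-response test of metallo-beta-lactamase enzyme inhibition, read out by epi-absorbance; purified recombinant IMP-1 metallo-beta-lactamase with nitrocefin as substrate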
Beta-lactamase [2] = molecular target: Beta-lactamase (Salmonella choleraesuis (strain SC-B67), UniProt Q5J463)
[3] = molecular target: T1, Low molecular weight phosphotyrosine protein phosphatase (Homo sapiens, UniProt P24666); assay type: functional; conditions: read-out: IC50_Mean;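 note: Dose-response confirmation assay measuring inhibition of LMPTP enzyme activity by fluorescence intensity read-out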
T1 sequence (P24666 whole entry): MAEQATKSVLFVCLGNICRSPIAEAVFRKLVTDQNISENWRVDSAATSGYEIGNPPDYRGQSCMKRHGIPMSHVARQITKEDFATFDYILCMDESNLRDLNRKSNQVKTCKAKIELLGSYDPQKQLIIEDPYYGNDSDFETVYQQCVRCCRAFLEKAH

[4] = human group III sPLA2 inhibitors, dose response, biochemical, QFRET, IC50 (AID 743457);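 note: green fluorescence rise as the enzyme cleaves BODIPY PC-A2 in liposomes; potency for inhibition of the enzyme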
[5] = A549 cell cytotoxicity, dose response, cytotoxicity control, plate reader, cherry-pick, antagonist series (AID 743412); assay type: functional, cell-based
[6] = HepG2 cell cytotoxicity, dose response, cytotoxicity control, plate reader, cherry-pick, antagonist series (AID 743416); assay type: functional, cell-based
[7] = LGR2 antagonists, dose response, cell-based, HEK293, CRE-luciferase reporter, cherry pick, set 2 (AID 743343); assay type: functional;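 note: transfected cells were stimulated with diluted bursicon conditioned medium after compound addition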
[8] = MC4R antagonists, dose response, counter-screen for LGR2 antagonist project, cell-based, plate reader, cherry pick (AID 743444); assay type: functional;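 note: transfected HEK 293 cells stimulated with alpha-MSH peptide; potency of inhibitors of the alpha-MSH evoked signal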
[9] = HEK293 cell cytotoxicity, dose response, cytotoxicity control, plate reader, cherry-picked samples (AID 743446); assay type: functional, cell-based
Major prion protein = Major prion protein (Homo sapiens, UniProt P04156); assay type: functional, cell-based
cells [10] = assay: cells
[11] = inhibitors of HIV Env-driven cell fusion, dose response, cherry-pick (AID 652057); assay type: functional, cell-based
[12] = CEM21 lymphoblast cell cytotoxicity, dose response, cytotoxicity control for viral fusion inhibitor project, CellTiter-Glo luminescence, cherry-picked (AID 652042); assay type: functional, cell-based;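 note: potency for signal decrease meaning cytotoxicity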
[13] = ZM109 Env clade C HIV-1 fusion inhibitors, dose response, HeLa effector, CEM target cells, luciferase, cherry-pick (AID 652058); assay type: functional, cell-based
[14] = inhibitors of clade B AD8 Env fusion, dose response, cell-based, cherry-pick (AID 652062); assay type: functional;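 note: luciferase signal from cell-cell fusion driven by HIV-1 clade B AD8 Env; potency is for inhibitors of fusion seen as a drop in luminescence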
cells [15] = assay type: functional, cell-based
[16] = molecular target: T2, Trace amine-associated receptor 1 (Homo sapiens, UniProt Q96RJ0); assay: Fluorescence-based cell-based high throughput dose response assay to identify agonists of the human trace amine associated receptor 1 (TAAR1).; assay type: functional
T2 sequence (Q96RJ0 whole entry): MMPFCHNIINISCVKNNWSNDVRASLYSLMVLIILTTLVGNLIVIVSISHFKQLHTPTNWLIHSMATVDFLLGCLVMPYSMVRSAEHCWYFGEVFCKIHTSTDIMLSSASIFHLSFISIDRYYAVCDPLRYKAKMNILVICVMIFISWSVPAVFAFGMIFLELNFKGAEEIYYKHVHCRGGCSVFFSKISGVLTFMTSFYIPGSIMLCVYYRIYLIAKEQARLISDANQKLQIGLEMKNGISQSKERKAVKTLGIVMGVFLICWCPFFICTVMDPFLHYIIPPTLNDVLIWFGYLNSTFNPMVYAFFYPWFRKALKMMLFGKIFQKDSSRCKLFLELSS

[17] = molecular target: T2, Trace amine-associated receptor 1; assay: Counterscreen for agonists of the human trace amine associated receptor 1 (hTAAR1): Fluorescence-based cell-based high throughput dose response assay to identify hTAAR1 agonist that also desensitize TAAR1 receptor response.; assay type: functional
cells [18] = assay type: functional, cell-based; remark: listed apart in the source
Albumin = Albumin (Bos taurus, UniProt P02769); assay: Counterscreen for inhibitors of T-cell receptor (TCR)-CD3 interaction: Fluorescence-based biochemical high throughput dose response assay to identify inhibitors of T-cell receptor (TCR)-CD3 interaction using a TAMRA-labeled BSA probe.; assay type: functional

CCn1c(=S)sc2c(=O)n(CC(=O)Nc3ccccc3C(F)(F)F)c(C)nc21
IC50 (Beta-lactamase [1]): 22.7 µM (inactive)
IC50 (Beta-lactamase [2]): > 59.6 µM (inactive)
IC50 [3]: 16.2 µM (active)

COc1ccc(Cl)cc1C(=O)NN=C(S)NC1CCCC1
IC50 [4]: > 122 µM (inactive)

O=C(Nc1ccc(N2CCN(C(=O)c3ccccc3)CC2)c(Cl)c1)c1ccc(Br)o1
AC50 [5]: 34.9 µM (active)
AC50 [6]: 35 µM (active)
AC50 [7]: 16.6 µM (active)
AC50 [8]: 14.9 µM (active)
AC50 [9]: 21.5 µM (active)

O=C(O)c1ccccc1SCc1csc(-c2ccccc2)n1
IC50 (Major prion protein): 6.49 µM (active)
IC50 (cells [10]): > 138 µM (inactive)

CCOc1ccc(C(=O)C2=C(O)C(=O)N(c3ccccn3)C2c2ccccc2F)c(C)c1 (stereo not drawn)
IC50 (Major prion protein): 5.58 µM (active)
IC50 (cells [10]): > 138 µM (inactive)

Cc1ccc(S(=O)(=O)Nc2ccc3c(c2)C(=O)N([C@H](C)CO)C[C@@H](C)[C@@H](CN(C)Cc2ccc(-c4ccccc4)cc2)O3)cc1
AC50 [11]: 18 µM (active)
AC50 [12]: 21.8 µM (active)
AC50 [13]: 16.6 µM (active)
AC50 [14]: 17.4 µM (active)

N#C[C@H]1[C@@H](c2ccc(-c3ccccc3)cc2)[C@@H](CO)N1S(=O)(=O)Cc1ccccc1
AC50 [11]: 1.93 µM (active)
AC50 [12]: 41.5 µM (active)
AC50 [14]: 4.94 µM (active)

COc1ccccc1CCn1cnc(-c2ccccc2OC)c1C(C)C
IC50 (cells [15]): 11.8 µM (inactive)
EC50 [16]: 5.14 µM (active)
IC50 [17]: 3.82 µM (active)
EC50 (cells [18]): > 29.9 µM (inactive)
AC50 [6]: 29.8 µM (active)
AC50 [8]: 29.4 µM (active)
AC50 [9]: > 52 µM (inactive)

O=C(NNC(=O)c1c(O)c2ccccc2[nH]c1=O)c1ccccc1
IC50 (Albumin): > 94.1 µM (inactive)
